How the values were obtained:
P-AKTSer473 [1] = assay: Patient tissues (healthy endometrium, adenomyosis or endometriosis lesions) treated in vitro, Western blot of P-AKT; format: cell-based, human; conditions: healthy endometrium and lesions of adenomyosis or endometriosis from patients, exposed in vitro during 24 hours to different doses; Western blot P-AKTSer473 (Figure 3B)
Protocol: (§1) Tissues were crushed and then lysed in RIPA lysis buffer supplemented with phosphatase and protease inhibitors. Protein concentrations were determined through the bicinchoninic acid method (Pierce). Protein extracts were analyzed by Western blot where the transfer membrane was incubated with a primary antibody followed by the appropriate peroxidase-conjugated secondary antibody (dilution 1:10,000). Chemiluminescence were acquired using a Chemidoc MP and bands were quantitated with the Image Lab Software (Bio-Rad Laboratories).
as §1, with “Tissues collected from patients (endometrium, adenomyosis, endometriosis and myoma). Tissues were cultivated in media and treated during 24 hours with either DMSO, alpelisib or ST420 (Compound having formula I and/or its derivatives). Then, they” for “Tissues”, “and” for “and then”
PIK3CA pharmacological inhibitors are developed for oncology and other medical situations. […]

[2] = patients treated with alpelisib; cited from earlier work
P-AKTSer473 [3] = assay: Patient myometrium and myoma samples treated in vitro, Western blot of P-AKT; format: cell-based, human; conditions: myometrium and myoma samples from patients treated in vitro 24 hours at different doses; Western blot P-AKTSer473 (Figure 4)
Protocol: as §1
as §1, with “Tissues collected from patients (endometrium, adenomyosis, endometriosis and myoma). Tissues were cultivated in media and treated during 24 hours with either DMSO, alpelisib or ST420 (Compound having formula I and/or its derivatives). Then, they” for “Tissues”, “and” for “and then”, “Laboratories). […]” for “Laboratories).”

Cc1nc(NC(=O)N2CCC[C@H]2C(N)=O)sc1-c1ccnc(C(C)(C)C(F)(F)F)c1 [alpelisib]
phosphorylation of AKT (P-AKTSer473 [1]): able to shut down the phosphorylation of AKT
insulin resistance which can lead to diabetes, share of patients [2]: about 30%
inhibition of the PIK3CA pathway in myoma (P-AKTSer473 [3]): able to inhibit the pathway in myoma
